Assay results: EP0965268B1, “Thermostabilization, osmoprotection, and protection against desiccation of enzymes, cell components and cells by di-glycerol-phosphate” (bitop Aktiengesellschaft für biotechnische Optimierung, priority 1998, dated 1999)

Columns and labels:
[1] = target: T1, Desulfovibrio gigas rubredoxin (Megalodesulfovibrio gigas, UniProt P00270); experiment: Thermal denaturation of rubredoxin, decrease in absorbance at 494 nm at 90°C; assay type: biochemical; details: 30 min incubation of rubredoxin at 90 °C, without solute 73%
T1 construct: Rubredoxin was obtained and purified as described by LeGall and Dragoni [15] from Desulfovibrio gigas; made in house; host or cells: Desulfovibrio gigas (natural source, not recombinant)
T1 sequence (P00270 whole entry): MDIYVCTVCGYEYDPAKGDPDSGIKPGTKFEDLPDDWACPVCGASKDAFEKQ
Method: Rubredoxin was obtained and purified as described by LeGall and Dragoni from Desulfovibrio gigas. This protein was then stored at -20°C in 10 mM Tris-HCl buffer at pH 7.6.
The most informative feature of the UV-Vis absorption spectrum of rubredoxins comes from the signals with maxima centered at 380, 494, and 570 nm which are attributed to metal to ligand transitions. These bands are bleached when rubredoxin undergoes de naturation.
In the experiments designed to evaluate denaturation caused by thermal stress, rubredoxin was prepared at a concentration of 84 µg . ml^-1 in 10 mM Tris-HCI buffer pH 7.6 and the incubation mixtures, with or without the additions of solutes, were placed in 400 µl quartz cells in a Beckman spectrophotometer with a thermostated cell compartment. The protein was subjected to a temperature of 90°C and the decrease in the absorbance at 494 nm was monitored as a function of time.
The protective effect of 1,1'-di-glycerol-phosphate (at a concentration of 100 mM) was compared with that of potassium phosphate (100 mM) and glycerol (200 mM) (Figure 4). After 30 min incubation of rubredoxin at 90 °C the absorbance decreased by only 8.5% when 1,1'-di-glycerol-phosphate was present, whereas in the absence of any solute a decrease of 73% was observed. […] In fact, the decreases in absorption are as high as 61 and 58 % in the presence of 200 mM glycerol or 100 mM potassium phosphate, respectively.

[2] = target: T2, rabbit muscle lactate dehydrogenase (LDH) (Oryctolagus cuniculus, UniProt P13491); experiment: Thermostability of lactate dehydrogenase, residual activity after incubation at 50°C; assay type: biochemical; details: 100 mM solute; 10 min of incubation at 50°C; without solute 30%
T2 construct: Lactate dehydrogenase, LDH (Sigma Type III, rabbit muscle), purchased as a suspension in ammonium sulphate; purchased Sigma Type III; host or cells: rabbit muscle
Method: (§1) Lactate dehydrogenase, LDH (Sigma Type III, rabbit muscle), purchased as a suspension in ammonium sulphate, was centrifuged, the supernatant was discarded, and the enzyme was suspended in 50 mM potassium phosphate pH 7.5. Alcohol dehydrogenase (Sigma, baker's yeast) was obtained in the lyophilized form and used without further purification. Enzymes were assayed using a Beckman spectrophotometer with a the rmostated cell compartment at 30°C.
(§2) In the experiments where thermal stress was imposed, enzymes were prepared at a concentration of 50 mg . ml^-1 in 20 mM potassium phosphate buffer, and the reaction mixtures were placed in Eppendorf tubes, incubated in a water-bath at 50°C for 10 minutes, cooled in an ice-bath and assayed immediately under standard conditions.
(§3) The effect of 1,1'-di-glycerol-phosphate on the thermostability of rabbit muscle LDH and baker's yeast ADH was compared to that of glycerol, a compound that is generally described as an enzyme protector. The percentage of residual activity in relation to pre-incubation activity, measured after 10 min of incubation at 50°C, is shown in Figure 5, for rabbit muscle LDH (A) and yeast ADH (B).
The effect of the concentration of 1,1'-di-glycerol-phosphate on the thermal stability of LDH was also monitored, and the results obtained after 10 min incubation at 50°C are shown in Figure 6. […]

[3] = target: T3, yeast alcohol dehydrogenase (ADH) (Saccharomyces cerevisiae, UniProt P00330); experiment: Thermostability of alcohol dehydrogenase, residual activity after incubation at 50°C; assay type: biochemical, baker's yeast; details: 10 min incubation at 50°C, without solute 33%
T3 construct: Alcohol dehydrogenase (Sigma, baker's yeast) was obtained in the lyophilized form and used without further purification; purchased Sigma; host or cells: baker's yeast
T3 sequence (P00330 2-348 limits assumed): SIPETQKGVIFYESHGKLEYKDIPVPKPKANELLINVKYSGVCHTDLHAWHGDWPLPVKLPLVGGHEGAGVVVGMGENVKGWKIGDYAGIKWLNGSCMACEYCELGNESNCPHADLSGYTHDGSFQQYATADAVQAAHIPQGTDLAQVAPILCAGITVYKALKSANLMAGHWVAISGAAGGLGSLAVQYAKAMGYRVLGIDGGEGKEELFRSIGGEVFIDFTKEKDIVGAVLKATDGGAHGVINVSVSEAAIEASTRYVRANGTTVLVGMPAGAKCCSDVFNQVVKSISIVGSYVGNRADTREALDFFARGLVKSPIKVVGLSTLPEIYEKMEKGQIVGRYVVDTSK
Method: as §1, §2, §3

O=P(O)(OCC(O)CO)OCC(O)CO (stereo not shown) [1,1'-di-glycerol-phosphate] was tested, and the “decrease in absorbance at 494 nm” value ([1]; 100 mM solute) was 8.5%, the “residual activity in relation to pre-incubation activity” value [2] was 85% and the “activity retained (of the initial activity)” value ([3]; 100 mM solute) was 88%.
With OCC(O)CO [glycerol] the “decrease in absorbance at 494 nm” value ([1]; 200 mM solute) was 61%, the “residual activity in relation to pre-incubation activity” value [2] was 37% and the “activity retained (of the initial activity)” value ([3]; 200 mM solute) was 31%.
With O=P(O)(O)O [potassium phosphate] the “decrease in absorbance at 494 nm” value ([1]; 100 mM solute) was 58%.
